{"source": "patent US20210244712A1", "about": "“METHODS FOR TREATING PATIENTS WITH CANCER HAVING DEFECTS IN CYCLIN D REGULATION” (NysnoBio Ireland DAC, priority 2018, published 2021)", "assay_type_in_all_cases": "cell-based", "key": {"cyclin D1": {"tested_on": "cyclin D1", "experiment": "Western blot of cellular biomarker cyclin D1", "experimental": "(§1) Various cancer cells lines were treated with Compound 42 or palbociclib (control) to measure the expression of cyclin D, cyclin E, pRb, and Rb.\n(§2) Day 1: 6 well plate was seeded with 3×10^5 cells/well with a final volume of 3 mL and incubated for 24 hours at 37° C.\n(§3) Day 2: The media was removed and Compound 42 (see below for dose) or palbociclib (1 μM) as positive control were added to the wells the desired concentration in cell culture media, giving a final volume of 3 mL per well. The plate was incubated for 24 hours at 37° C. (or desired period).\n(§4) Day 3: The media was removed from wells and washed ×3 with PBS. 500 μl of trypsin was added to the wells and incubate until cells detach. 500 μl media was added to neutralise trypsin, transferred to 2 ml Eppendorfs, and centrifuged (1500 RPM for 5 minutes). While spinning, the wells were washed with 1 mL PBS to collect any remaining cells. This wash was used to centrifuged cell pellet. After the first spin, the supernatant was discarded and the pellet was washed with PBS collected from the previous step. The centrifugation step was repeated and the supernatant was discarded and the pellet wash again with fresh PBS. The centrifugation and wash with PBS was repeated one more time. RIPA cell lysate buffer was prepared and Protease Inhibitor Cocktail was included. The supernatant was discarded and […] RIPA cell lysate buffer was added to the pellet. The protein concentration was determined using the BCA assay kit.\n(§5) Day 4: Western blot analysis was performed. 4-12% Bis-Tris gel and MOPS running buffer was used. The running buffer was made to sufficient volume of running buffer to 1× concentration. 20 μg protein (v/v loading & reducing buffer) of each sample was loaded into wells. Some proteins may require more, or less, protein loaded. The gel was ran at standard settings 200 V for 45 minutes. Once gel has run, the gel was transferred for 7 minutes using the iBlot Blotting System. The membrane was blocked using 5% non-fat powdered milk* made up in 1×TBS containing 0.1% Tween (TBS-T and incubated for 1 hr with gentle rocking. The observation from the Western blot analysis is quantified in FIGS. 2-7D.\nCell lines A2780 (ovarian cell line with no cyclin D pathway mutations), ES-2 (ovarian cell line with cyclin D amplification, p53 mutation), OAW42, and SW626 were treated with DMSO (control), 250 nM of Compound 42, or 1 μM of Palbociclib. Treated cells were incubated for 24 hours and data represented in FIGS. 2-5 represents n=3."}, "pRb": {"tested_on": "pRb", "experiment": "Western blot of cellular biomarker pRb", "experimental": "as §1, §2, §3, §4\nas §5, with “Once gel has run, the gel was transferred for 7 minutes using the iBlot Blotting System.” left out, “2-7D. […]” for “2-7D.”"}, "OVCAR-3": {"tested_on": "OVCAR-3", "experiment": "Cell proliferation assay", "details": "Homo sapiens; Ovarian OVCAR-3; loss of p16 (mutant p53)"}, "HCT-116": {"tested_on": "HCT-116", "experiment": "Senescence quantification (SA-βGal), Example 6A", "details": "Compound 42 250 nM, Palbociclib 1 μM, compared to control (DMSO)", "experimental": "Day 1: 96 well plate was seeded with 4000 cells/well and incubated for 24 hours at 37° C. […]\nDay 6: Senescence cells histochemical Staining Kit (Sigma) was used. The growth medium form the cells were aspirated then washed twice with fresh […]. […] 100 μL filtered Fixation Buffer was added per well and the plate was incubated for 6-7 minutes at room temperature. Then, the cells were rinsed 3 times with PBS. 50 μL of the Staining Mixture was added per well and incubated at 37° C. overnight without CO2 (staining is pH dependent). After staining, the Staining Mixture was removed, PBS and Hoechst dye (1 μg/mL) were added. Ten images were taken with Epifluorescence Microscope using the blue filter and 10 images were taken in the brightfield. The images were used to count the total cell number—the positive blue cells were counted in the bright field. The percentage of cells expressing β-galactosidase was calculated.\nMethod 1: Mammalian β-Galactosidase Assay Kit (Thermo Scientific) was used. […] The cells were washed once with PBS. 100 μL of the β-Galactosidase Assay Reagent was added to each well and the plate was covered and incubated for 30 minutes at 37° C. without CO2. The absorbance was measured at 405 nm. […]\nMethod 2: Assay of a portion of the lysate. […] 25 μL of lysate was removed and use it for Protein Quantification (BCA). […]\nSenescence was quantified according to Example 4. […]"}, "cyclin E1": {"tested_on": "cyclin E1", "experiment": "Western blot of cellular biomarker cyclin E1", "details": "250 nM Compound 42, 24 hours, compared to palbociclib 1 μM", "experimental": "as §1, §2, §3, §4\nas §5, with “Once gel has run, the gel was transferred for 7 minutes using the iBlot Blotting System.” left out, “2-7D. […]” for “2-7D.”"}, "Rb": {"tested_on": "Rb", "experiment": "Western blot of cellular biomarker Rb", "experimental": "as §1, §2, §3, §4\nas §5, with “Once gel has run, the gel was transferred for 7 minutes using the iBlot Blotting System.” left out, “2-7D. […]” for “2-7D.”"}, "Cyclin D [1]": {"tested_on": "Cyclin D", "experiment": "Western blot of cellular biomarker cyclin D", "experimental": "as §1, §2, §3, §4, §5\nCell line JEKO-1 (mantle cell line with cyclin D chromosome translocation, amplification of cyclin D) was treated with DMSO (control), 500 nM of Compound 42, or 1 μM of Palbociclib. Treated cells were incubated for 48 hours and data represented in FIGS. 6A-6C represents n=1."}, "cyclin E": {"tested_on": "cyclin E", "experiment": "Western blot of cellular biomarker cyclin E", "details": "JEKO-1; 500 nM Compound 42; 48 hours; compared to palbociclib 1 μM", "experimental": "as §1, §2, §3\nDay 3: The media was removed from wells and washed ×3 with PBS. 500 μl of trypsin was added to the wells and incubate until cells detach. 500 μl media was added to neutralise trypsin, transferred to 2 ml Eppendorfs, and centrifuged (1500 RPM for 5 minutes). While spinning, the wells were washed with 1 mL PBS to collect any remaining cells. This wash was used to centrifuged cell pellet. After the first spin, the supernatant was discarded and the pellet was washed with PBS collected from the previous step. […] The protein concentration was determined using the BCA assay kit.\nDay 4: Western blot analysis was performed. […] The membrane was blocked using 5% non-fat powdered milk* made up in 1×TBS containing 0.1% Tween (TBS-T and incubated for 1 hr with gentle rocking. The observation from the Western blot analysis is quantified in FIGS. 2-7D. […]"}, "SW626": {"tested_on": "SW626", "experiment": "Cell proliferation assay", "details": "Homo sapiens; Table 7a; Ovarian (SW626)"}, "Cyclin D [2]": {"tested_on": "Cyclin D", "experiment": "Mechanistic study: Cyclin D western blot with or without epoxomicin", "details": "ES-2, 18 hours", "experimental": "In order to establish that the decrease in Cyclin D seen after Compound 42 treatment is due to proteasomal degradation, ES-2, ovarian cancer cell line was treated with Compound 42 (250 nM) in the presence or absence of epoxomicin, a specific inhibitor of the proteasome (60 nM) for 18 hours. Following the treatment, western blotting for Cyclin D (FIG. 10A), Ub (FK-2) (FIG. 10B), and GAPDH control (bottom blot, below FIGS. 10A and 10B) was performed. Epoxomicin is a specific inhibitor of the proteasome."}, "[3]": {"details": "HT116, with increasing concentration"}, "[4]": {"details": "OAW42, 250 nM Compound 42, 24 hours, compared to palbociclib 1 μM"}}, "data": [{"smiles": "Cc1ccccc1C(=O)Nc1nc(NC(=O)c2ccccc2C)n(-c2ccc(OC(F)(F)F)cc2)n1", "note": "[Compound 42, N,N′-(1-(4-(trifluoromethoxy)phenyl)-1H-1,2,4-triazole-3,5-diyl)bis(2-methylbenzamide)]", "values": [{"measurement": "Cyclin D1 expression", "setting": "cyclin D1; A2780, 250 nM Compound 42, 1 μM Palbociclib, 24 hours", "result": "reduction of cyclin D1 expressions"}, {"measurement": "Cyclin D1 expression", "setting": "cyclin D1; ES-2, 250 nM Compound 42, 1 μM Palbociclib, 24 hours", "result": "reduction of cyclin D1 expressions"}, {"measurement": "Cyclin D1 expression", "setting": "cyclin D1; [3]", "result": "reduction"}, {"measurement": "Cyclin D1 expression", "setting": "cyclin D1; OAW42, 250 nM Compound 42, 1 μM Palbociclib, 24 hours", "result": "reduction of cyclin D1 expressions"}, {"measurement": "Cyclin D1 expression", "setting": "cyclin D1; SW626, 250 nM Compound 42, 1 μM Palbociclib, 24 hours", "result": "reduction of cyclin D1 expressions"}, {"measurement": "pRb expression", "setting": "pRb; A2780, 250 nM Compound 42, 24 hours, compared to palbociclib 1 μM", "result": "some reduction of pRb expression"}, {"measurement": "pRb expression", "setting": "pRb; [3]", "result": "reduction"}, {"measurement": "pRb expression", "setting": "pRb; [4]", "result": "reduction of pRb expression"}, {"measurement": "IC50", "setting": "OVCAR-3", "result": 0.14, "unit": "µM"}, {"measurement": "senescence (SA-βGal levels)", "setting": "HCT-116", "result": "induced senescence"}, {"measurement": "cyclin E1 expression", "setting": "cyclin E1; A2780", "result": "reduction of cyclin E1 expressions"}, {"measurement": "cyclin E1 expression", "setting": "cyclin E1; ES-2", "result": "reduction of cyclin E1 expressions"}, {"measurement": "cyclin E1 expression", "setting": "cyclin E1; OAW42", "result": "some reduction of cyclin E1 expression"}, {"measurement": "Rb expression", "setting": "Rb; ES-2, 250 nM Compound 42, 24 hours, compared to palbociclib 1 μM", "result": "reduction of Rb expression"}, {"measurement": "Rb expression", "setting": "Rb; [3]", "result": "reduction"}, {"measurement": "Rb expression", "setting": "Rb; [4]", "result": "reduction of Rb expression"}, {"measurement": "normalization of cyclin D", "setting": "Cyclin D [1]; HCT-116 (p16 mutation), Compound 42 250 nM, Palbociclib 1 μM", "result": "normalized cyclic D"}, {"measurement": "cyclin D expression", "setting": "Cyclin D [1]; [3]", "result": "reduction"}, {"measurement": "cyclin D expression", "setting": "Cyclin D [1]; JEKO-1, 500 nM Compound 42, 48 hours, compared to palbociclib 1 μM", "result": "reduction of cyclin E and cyclin D expression"}, {"measurement": "cyclin D expression", "setting": "Cyclin D [1]; OAW28", "result": "decreased"}, {"measurement": "cyclin E expression", "setting": "cyclin E", "result": "reduction of cyclin E and cyclin D expression"}, {"measurement": "EC50", "setting": "SW626", "result": 0.334, "unit": "µM"}, {"measurement": "cyclin D levels", "setting": "Cyclin D [2]; Compound 42 250 nM alone", "result": "induced cyclin D levels to decrease"}, {"measurement": "cyclin D levels", "setting": "Cyclin D [2]; Compound 42 250 nM alone, listed as compound 42", "result": "decreases cyclin D levels"}, {"measurement": "cyclin D levels", "setting": "Cyclin D [2]; Compound 42 250 nM in the presence of epoxomicin 60 nM", "result": "returned cyclin D levels to normal (or slightly above)"}, {"measurement": "cyclin D levels", "setting": "Cyclin D [2]; Compound 42 250 nM in the presence of epoxomicin 60 nM, listed as compound 42", "result": "counterbalanced by adding epoxomicin"}]}]}
